Laboratory results as given in publication PMC6478789, “A chemical toolbox for the study of bromodomains and epigenetic signaling” (Nature Communications, 2019).
pKd: −log10 of the molar value.

Assays:
[1] = target: T1, BAZ1B (Homo sapiens, UniProt Q9UIG0); experiment: BROMOscan ligand-binding assay; settings: for pKd: KD; for Kd: KD (BROMOscan), sheet prints no unit (nM)
T1 sequence (Q9UIG0 1339-1443 limits assumed): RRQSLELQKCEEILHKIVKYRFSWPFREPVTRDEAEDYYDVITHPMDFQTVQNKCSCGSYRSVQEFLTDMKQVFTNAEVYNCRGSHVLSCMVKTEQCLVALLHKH
Source text: BROMOscan is a binding assay based on the well-known KINOMEscan technology. This assay measures the binding of a DNA-tagged bromodomain to an immobilized BRD ligand. If an inhibitor is present, it will compete with the bromodomain binding to the immobilized ligand, resulting in reduction of a quantitative PCR (qPCR) signal in a dose-dependent manner.

[2] = target: T2, CK2A1 (Homo sapiens, UniProt P68400); experiment: Temperature shift assay (protein kinases); format: binding; settings: 10 μM probe; average of three measurements
T2 construct: Recombinant protein domains (bromodomain or kinases) at a concentration of 2 μM
T2 sequence (P68400 39-324 limits assumed): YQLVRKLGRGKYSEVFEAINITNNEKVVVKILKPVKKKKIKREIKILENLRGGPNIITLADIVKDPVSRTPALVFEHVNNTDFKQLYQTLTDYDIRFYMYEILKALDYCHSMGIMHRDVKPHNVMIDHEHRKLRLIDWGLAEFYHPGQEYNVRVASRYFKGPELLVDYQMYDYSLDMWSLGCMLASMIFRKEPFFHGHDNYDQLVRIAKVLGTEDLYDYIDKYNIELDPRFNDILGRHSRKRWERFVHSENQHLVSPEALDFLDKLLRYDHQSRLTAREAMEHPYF
Method: (§1) Temperature shift assays have been described by Fedorov et al.[46]. Recombinant protein domains (bromodomain or kinases) at a concentration of 2 μM in 10 mM HEPES, pH 7.5, and 500 mM NaCl were mixed with 10 μM of chemical probes. Temperature-dependent protein unfolding profiles were measured using a Real-Time PCR Mx3005p machine (Stratagene).

[3] = target: T3, AURKB (Homo sapiens, UniProt Q96GD4); experiment: Temperature shift assay (protein kinases); format: binding; settings: 10 μM probe; average of three measurements
T3 construct: Recombinant protein domains (bromodomain or kinases) at a concentration of 2 μM
Method: as §1

[4] = target: T4, AAK1 (Homo sapiens, UniProt Q2M2I8); experiment: Temperature shift assay (protein kinases); format: binding; settings: 10 μM probe; average of three measurements
T4 construct: Recombinant protein domains (bromodomain or kinases) at a concentration of 2 μM
Method: as §1

[5] = target: T5, TTK (Homo sapiens, UniProt P33981); experiment: Temperature shift assay (protein kinases); format: binding; settings: 10 μM probe; average of three measurements
T5 construct: Recombinant protein domains (bromodomain or kinases) at a concentration of 2 μM
T5 sequence (P33981 525-791 limits assumed): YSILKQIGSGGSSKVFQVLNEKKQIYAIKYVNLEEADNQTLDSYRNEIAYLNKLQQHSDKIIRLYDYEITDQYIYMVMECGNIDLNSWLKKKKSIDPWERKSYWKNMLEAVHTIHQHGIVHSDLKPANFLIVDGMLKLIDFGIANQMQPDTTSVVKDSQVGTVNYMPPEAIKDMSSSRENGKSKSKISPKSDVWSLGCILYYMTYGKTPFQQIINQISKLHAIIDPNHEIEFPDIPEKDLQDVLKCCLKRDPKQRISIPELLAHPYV
Method: as §1

[6] = target: T6, CAMKK2 (Homo sapiens, UniProt Q96RR4); experiment: Temperature shift assay (protein kinases); format: binding; settings: 10 μM probe; average of three measurements
T6 construct: Recombinant protein domains (bromodomain or kinases) at a concentration of 2 μM
Method: as §1

[7] = target: T7, BRAF (Homo sapiens, UniProt P15056); experiment: Temperature shift assay (protein kinases); format: binding; settings: 10 μM probe; average of three measurements
T7 construct: Recombinant protein domains (bromodomain or kinases) at a concentration of 2 μM
Method: as §1

[8] = target: T8, STK10 (Homo sapiens, UniProt O94804); experiment: Temperature shift assay (protein kinases); format: binding; settings: 10 μM probe; average of three measurements
T8 construct: Recombinant protein domains (bromodomain or kinases) at a concentration of 2 μM
Method: as §1

[9] = target: T9, EPHA2 (Homo sapiens, UniProt P29317); experiment: Temperature shift assay (protein kinases); format: binding; settings: 10 μM probe; average of three measurements
T9 construct: Recombinant protein domains (bromodomain or kinases) at a concentration of 2 μM
T9 sequence (P29317 613-875 limits assumed): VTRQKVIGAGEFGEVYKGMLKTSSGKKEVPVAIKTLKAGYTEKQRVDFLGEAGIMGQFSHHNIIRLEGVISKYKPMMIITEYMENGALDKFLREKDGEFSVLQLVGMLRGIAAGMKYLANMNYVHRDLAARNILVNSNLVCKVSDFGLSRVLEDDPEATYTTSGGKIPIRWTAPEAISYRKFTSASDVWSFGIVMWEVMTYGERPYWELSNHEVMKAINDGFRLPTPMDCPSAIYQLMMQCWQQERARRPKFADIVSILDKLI
Method: as §1

[10] = target: T10, MAPK1 (Homo sapiens, UniProt P28482); experiment: Temperature shift assay (protein kinases); format: binding; settings: 10 μM probe; average of three measurements
T10 construct: Recombinant protein domains (bromodomain or kinases) at a concentration of 2 μM
Method: as §1

[11] = target: T11, FES (Homo sapiens, UniProt P07332); experiment: Temperature shift assay (protein kinases); format: binding; settings: 10 μM probe; average of three measurements
T11 construct: Recombinant protein domains (bromodomain or kinases) at a concentration of 2 μM
Method: as §1

[12] = target: T12, CASK (Homo sapiens, UniProt O14936); experiment: Temperature shift assay (protein kinases); format: binding; settings: 10 μM probe; average of three measurements
T12 construct: Recombinant protein domains (bromodomain or kinases) at a concentration of 2 μM
T12 sequence (O14936 12-276 limits assumed): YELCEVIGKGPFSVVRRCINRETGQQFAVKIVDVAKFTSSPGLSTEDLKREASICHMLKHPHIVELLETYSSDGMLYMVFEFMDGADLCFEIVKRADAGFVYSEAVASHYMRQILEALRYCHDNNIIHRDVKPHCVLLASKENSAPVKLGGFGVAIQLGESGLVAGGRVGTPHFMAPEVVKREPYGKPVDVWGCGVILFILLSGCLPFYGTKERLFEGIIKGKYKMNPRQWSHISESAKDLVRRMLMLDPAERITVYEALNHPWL
Method: as §1

[13] = target: T13, CSNK1D (Homo sapiens, UniProt P48730); experiment: Temperature shift assay (protein kinases); format: binding; settings: 10 μM probe; average of three measurements
T13 construct: Recombinant protein domains (bromodomain or kinases) at a concentration of 2 μM
T13 sequence (P48730 9-277 limits assumed): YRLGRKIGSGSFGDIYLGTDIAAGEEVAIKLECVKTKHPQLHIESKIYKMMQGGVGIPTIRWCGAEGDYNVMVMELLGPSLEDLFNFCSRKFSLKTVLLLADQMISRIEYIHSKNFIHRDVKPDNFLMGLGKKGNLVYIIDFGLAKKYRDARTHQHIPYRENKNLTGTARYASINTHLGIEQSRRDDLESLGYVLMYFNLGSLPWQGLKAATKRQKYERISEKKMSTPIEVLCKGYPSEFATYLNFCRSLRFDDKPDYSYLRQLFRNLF
Method: as §1

[14] = target: T14, ABL1 (Homo sapiens, UniProt P00519); experiment: Temperature shift assay (protein kinases); format: binding; settings: 10 μM probe; average of three measurements
T14 construct: Recombinant protein domains (bromodomain or kinases) at a concentration of 2 μM
T14 sequence (P00519 242-493 limits assumed): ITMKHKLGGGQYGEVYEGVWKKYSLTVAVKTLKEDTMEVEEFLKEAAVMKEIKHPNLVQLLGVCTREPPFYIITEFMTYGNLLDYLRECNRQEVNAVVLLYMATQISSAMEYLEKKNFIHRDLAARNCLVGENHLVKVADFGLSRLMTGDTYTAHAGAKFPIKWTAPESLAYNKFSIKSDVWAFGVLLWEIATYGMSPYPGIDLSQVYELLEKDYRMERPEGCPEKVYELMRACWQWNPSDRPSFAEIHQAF
Method: as §1

T8 sequence (O94804 36-294 limits assumed, species assumed): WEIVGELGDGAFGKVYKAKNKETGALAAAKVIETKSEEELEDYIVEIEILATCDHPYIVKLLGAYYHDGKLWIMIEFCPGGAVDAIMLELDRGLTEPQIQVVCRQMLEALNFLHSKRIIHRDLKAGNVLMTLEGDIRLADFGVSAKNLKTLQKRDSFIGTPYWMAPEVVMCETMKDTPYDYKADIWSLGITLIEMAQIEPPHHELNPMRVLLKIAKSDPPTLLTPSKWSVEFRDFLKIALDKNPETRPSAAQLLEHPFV
T4 sequence (Q2M2I8 46-315 limits assumed, species assumed): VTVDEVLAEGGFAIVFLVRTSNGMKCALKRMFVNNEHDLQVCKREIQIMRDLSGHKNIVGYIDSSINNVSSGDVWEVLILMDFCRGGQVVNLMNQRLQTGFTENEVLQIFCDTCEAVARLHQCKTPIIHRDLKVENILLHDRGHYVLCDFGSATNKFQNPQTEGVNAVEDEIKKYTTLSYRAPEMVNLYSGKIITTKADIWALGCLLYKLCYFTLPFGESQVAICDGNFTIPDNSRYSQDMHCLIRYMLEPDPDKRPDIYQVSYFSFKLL
T7 sequence (P15056 457-717 limits assumed, species assumed): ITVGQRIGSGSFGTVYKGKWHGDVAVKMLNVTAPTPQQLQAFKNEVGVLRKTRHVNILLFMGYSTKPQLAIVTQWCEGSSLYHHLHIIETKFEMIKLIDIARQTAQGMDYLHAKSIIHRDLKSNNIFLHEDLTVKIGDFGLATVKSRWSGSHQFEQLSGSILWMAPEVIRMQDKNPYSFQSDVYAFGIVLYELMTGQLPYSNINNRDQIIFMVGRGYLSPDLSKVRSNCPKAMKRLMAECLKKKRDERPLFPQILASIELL
T10 sequence (P28482 25-313 limits assumed, species assumed): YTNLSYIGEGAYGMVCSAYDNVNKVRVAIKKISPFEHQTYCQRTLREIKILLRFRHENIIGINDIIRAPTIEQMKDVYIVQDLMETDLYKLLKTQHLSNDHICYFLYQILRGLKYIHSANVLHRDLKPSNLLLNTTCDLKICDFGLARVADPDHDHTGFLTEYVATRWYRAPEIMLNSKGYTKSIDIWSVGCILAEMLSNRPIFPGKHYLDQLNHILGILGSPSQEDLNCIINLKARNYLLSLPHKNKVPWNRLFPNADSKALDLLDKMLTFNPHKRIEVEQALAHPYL
T6 sequence (Q96RR4 165-446 limits assumed, species assumed): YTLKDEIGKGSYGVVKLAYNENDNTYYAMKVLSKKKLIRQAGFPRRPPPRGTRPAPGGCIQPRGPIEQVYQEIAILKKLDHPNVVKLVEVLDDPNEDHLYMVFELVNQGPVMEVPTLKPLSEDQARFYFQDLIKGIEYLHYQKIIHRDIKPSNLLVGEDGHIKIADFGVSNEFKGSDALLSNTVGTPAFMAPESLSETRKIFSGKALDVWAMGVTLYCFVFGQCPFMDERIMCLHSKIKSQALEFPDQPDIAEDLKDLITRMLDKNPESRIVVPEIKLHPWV
T11 sequence (P07332 561-822 limits assumed, species assumed): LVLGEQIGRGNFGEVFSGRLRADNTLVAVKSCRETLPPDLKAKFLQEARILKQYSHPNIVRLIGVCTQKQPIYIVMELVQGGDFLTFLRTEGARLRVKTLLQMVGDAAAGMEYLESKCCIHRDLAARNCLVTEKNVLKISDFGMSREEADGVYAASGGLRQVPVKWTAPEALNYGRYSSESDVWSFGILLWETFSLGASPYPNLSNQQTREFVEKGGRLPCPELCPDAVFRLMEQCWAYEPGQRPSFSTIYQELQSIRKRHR
T3 sequence (Q96GD4 77-327 limits assumed, species assumed): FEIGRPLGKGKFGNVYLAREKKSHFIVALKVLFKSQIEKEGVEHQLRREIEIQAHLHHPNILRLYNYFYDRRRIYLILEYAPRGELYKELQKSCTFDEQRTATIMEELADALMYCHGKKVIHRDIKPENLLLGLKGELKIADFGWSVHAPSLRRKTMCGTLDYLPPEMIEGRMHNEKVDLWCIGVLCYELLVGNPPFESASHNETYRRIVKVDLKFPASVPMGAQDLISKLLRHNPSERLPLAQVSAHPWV

`O=C(O)c1ccccc1O` [Salicylic Acid] was tested, and the pKd ([1]; BAZ1B) was < 1.85.
`Cc1cc2c(cc1N1C(=O)c3cccc4c(CCCO)ccc(c34)C1=O)n(C)c(=O)n2C` [BAY-299] showed a Temperature shift [2] of -1.4 Kelvin, a Temperature shift [3] of 0.2 Kelvin and a Temperature shift [4] of -0.4 Kelvin. The Temperature shift [5] was -0.1 Kelvin, the Temperature shift [6] was -0.4 Kelvin and the Temperature shift [7] was 0.1 Kelvin. The Temperature shift [8] was -0.2 Kelvin, the Temperature shift [9] was 2.0 Kelvin and the Temperature shift [10] was 0.0 Kelvin. For the same compound, the Temperature shift [11] was 0.0 Kelvin, the Temperature shift [12] was -0.1 Kelvin and the Temperature shift [13] was 1.2 Kelvin. The Temperature shift [14] was 0.0 Kelvin.
For `CCCOc1ccn2c(C(C)=O)cc(-c3ccccc3S(C)(=O)=O)c2c1` [GSK2801], the Kd [1] was > 30000 nM and the pKd ([1]; BROMOscan Gene Symbol BAZ1B) was < 4.00.
For `CCC(=O)N1CCOc2c(cc(-c3ccc(OC)c(OC)c3)cc2OCC2CCCN(C)C2)C1` (stereo not drawn) [I-CBP112], the Kd [1] was > 30000 nM, the pKd ([1]; BROMOscan Gene Symbol BAZ1B) was < 4.00 and the Temperature shift [2] was -1.9 Kelvin. It also gave a Temperature shift [3] of 0.3 Kelvin, a Temperature shift [4] of -0.7 Kelvin and a Temperature shift [5] of 0.0 Kelvin. For the same compound, the Temperature shift [6] was -0.4 Kelvin, the Temperature shift [7] was -0.1 Kelvin and the Temperature shift [8] was -0.4 Kelvin. The Temperature shift [9] was 1.1 Kelvin, the Temperature shift [10] was 0.2 Kelvin and the Temperature shift [11] was -0.1 Kelvin. It also gave a Temperature shift [12] of 0.0 Kelvin, a Temperature shift [13] of 0.5 Kelvin and a Temperature shift [14] of 0.0 Kelvin.
In the case of `Cc1nnc2c3ccccc3c(N[C@@H](C)[C@H](c3ccccc3)N(C)C)nn12` [L-Moses], the Temperature shift [2] was -0.1 Kelvin, the Temperature shift [3] was 0.4 Kelvin and the Temperature shift [4] was -1.6 Kelvin. For the same compound, the Temperature shift [5] was -0.5 Kelvin, the Temperature shift [6] was -0.1 Kelvin and the Temperature shift [7] was -0.1 Kelvin. For the same compound, the Temperature shift [8] was -0.4 Kelvin, the Temperature shift [9] was 1.1 Kelvin and the Temperature shift [10] was 0.1 Kelvin. For the same compound, the Temperature shift [11] was -0.2 Kelvin, the Temperature shift [12] was -0.1 Kelvin and the Temperature shift [13] was 0.6 Kelvin. The Temperature shift [14] was 0.0 Kelvin.
With `COc1ccc(CCc2nc3cc(-c4c(C)noc4C)ccc3n2C[C@H](C)N2CCOCC2)cc1Cl` [SGC-CBP30] the Kd [1] was > 30000 nM and the pKd ([1]; BROMOscan, BAZ1B) was < 4.00.
For `O=C(C=CN1CC2CC1CN2c1ccccn1)c1ccccc1O` (stereo not drawn) [PFI-3], the Kd [1] was > 30000 nM and the pKd ([1]; BAZ1B) was < 4.00.
